Series [1] concerns human cervical carcinoma cell line KB/HeLa (ATCC CCL17). The series can be described thus: XTT proliferation test, KB/HeLa. It is filed as cell-based. To be noted: eight substance concentrations. The procedure:
(§1) In a proliferation test, the antiproliferative activity of the substance D-69429 was examined using established tumor cell lines. In the test used, the cellular dehydrogenation activity is determined, which makes it possible to determine the vitality of the cell and, indirectly, the cell count. The cell lines used are the human cervical carcinoma cell line KB/HeLa (ATCC CCL17), the murine lymphocyte a leukaemia L1210 (ATCC CCL-219), the human breast adenocarcinoma line MCF7 (ATCC HTB22) and the ovary adenocarcinoma line SKOV-3 (ATCC HTB77). These are established cell lines which are very well characterized and were obtained from ATCC and cultured.
(§2) The adherently growing tumor cell lines HeLa/KB, SKOV-3 and MCF7 and the L1210 leukaemia line, which grows in suspension, were cultivated under standard conditions in an incubator with gas inlet at 37° C., 5% CO2 and 95% atmospheric humidity. […]
(§3) For the XTT assay, 1 mg/ml of XTT (sodium 3′-[1-(phenylaminocarbonyl)-3,4-tetrazolium]-bis(4-methoxy-6-nitro)benzenesulfonic acid) is dissolved in RPMI-1640 medium without Phenol Red. […] The cell plates are then incubated in the incubator with gas inlet for a further 3 h, and the optical density (OD490nm) is determined in a photometer.
(§4) Using the OD490nm obtained, the inhibition in percent relative to the control is calculated. […]
On the technique in general: Tetrazolium dyes change colour on reduction, which living cells bring about.

Series [2] has as its system human breast adenocarcinoma line MCF7 (ATCC HTB22). The series can be described thus: XTT proliferation test, MCF7. It is filed as cell-based. As for the experimental part: as §1, §2, §3, §4
The test system of series [3] is murine lymphocyte leukaemia L1210 (ATCC CCL-219). The series can be described thus: XTT proliferation test, L1210. It is filed as cell-based. To be noted: L-1210, eight substance concentrations. The procedure: as §1, §2, §3, §4
Series [4] relates to ovary adenocarcinoma line SKOV-3 (ATCC HTB77). The series can be described thus: XTT proliferation test, SKOV-3. It is filed as cell-based, human. Particulars: SKOV-3, eight substance concentrations. As for the experimental part:
as §1, §2, §3, §4

The results in this text go back to US8008324B2, “Indole derivatives and their use as medicament” (AEterna Zentaris GmbH, priority 2000, dated 2011).

On to `Cc1ccc2cc(NC(=O)C(=O)c3cn(Cc4ccc(Cl)cc4)c4ccccc34)ccc2n1` [Example D-69429, N-(2-methyl-6-quinolyl)-[1-(4-chlorobenzyl)indole-3-yl]glyoxylamide], for which the melting point – broadly, the temperature of the solid-liquid transition – lay in the range of 182 to 185 °C. The antiproliferative action result in series [1] is “highly potent antiproliferative action”. In addition, 3.16 µg/mL produced 18% inhibition in series [2] (MCF7, at 3.16 μg/ml, test period 48 h). For the same molecule, the IC50 in series [2] (MCF7, test period 48 h, regression analysis, read-out: antiproliferative activity (stated as >3.16)) is more than 3.16 µg/mL. Also, the antiproliferative action entry in series [3] is listed as “highly potent antiproliferative action”. In addition, the antiproliferative action entry in series [4] is “highly potent antiproliferative action”.
